Records with an inconclusive call do not appear. Active and inactive are the calls of the source. No rule for the calls is given here.
What follows are molecules tested against Luciferin 4-monooxygenase (Photinus pyralis) (UniProt P08659) (assay: Luciferase translation or activity inhibitors, H4 neuroglioblastoma cells, luminescence dose response (AID 1990)). Settings: H4 neuroglioma cells.
Sequence of Luciferin 4-monooxygenase (Photinus pyralis) (P08659 whole entry, looked up): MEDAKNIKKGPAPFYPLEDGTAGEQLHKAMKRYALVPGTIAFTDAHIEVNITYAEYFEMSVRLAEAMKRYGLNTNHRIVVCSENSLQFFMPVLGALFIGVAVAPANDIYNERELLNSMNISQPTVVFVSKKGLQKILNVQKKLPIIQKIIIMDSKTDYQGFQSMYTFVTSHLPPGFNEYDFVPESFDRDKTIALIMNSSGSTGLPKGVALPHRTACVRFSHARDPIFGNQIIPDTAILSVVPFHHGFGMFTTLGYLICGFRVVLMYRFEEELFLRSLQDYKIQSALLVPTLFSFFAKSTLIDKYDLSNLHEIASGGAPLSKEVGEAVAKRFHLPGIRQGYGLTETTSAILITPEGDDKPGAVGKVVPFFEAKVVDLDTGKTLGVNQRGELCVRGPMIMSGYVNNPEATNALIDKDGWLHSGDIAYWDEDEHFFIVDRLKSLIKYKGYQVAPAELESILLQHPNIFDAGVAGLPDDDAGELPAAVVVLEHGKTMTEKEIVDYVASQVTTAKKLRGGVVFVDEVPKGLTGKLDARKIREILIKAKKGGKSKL
With `COc1ccc(O)c2c(=O)c3c(OC)cc4c(c3oc12)C1C=COC1O4` (stereo not drawn) the EC50 was < 0.1 µM. `C=C(C=O)CC1CC(O)[C@]2(C)OC3CC4OC5C[C@]6(C)O[C@]7(C)CCC8OC9C[C@]%10(C)OC%11C(C)=CC(=O)OC%11CC%10OC9C[C@@H](C)C8OC7CC6O[C@]5(C)CC5OC5C4OC3CC2O1` (stereo partly drawn) was tested, and the EC50 was > 12 µM (inactive). Work on `C#CCOCCOCCOCCNc1nc(N2CCN(C(=O)CCCCCCCCCCNC(=O)[C@H](CO)n3cc(CCCSC)nn3)CC2)nc(N2CCN(C(=O)CCCCCCCCCCNC(=O)[C@H](CCCCN)n3cc(C[C@@H](C)CC)nn3)CC2)n1` yielded an EC50 of 7.24 µM.
